System: ARNT2 mRNA
Assay: Stimulation of the expression of ARNT2 mRNA in normal human keratinocytes (real-time RT-PCR)
Assay type: cell-based
Conditions: 0.001% active agent (w/w), 24 hours, fold vs untreated control (1.00), housekeeping gene RPLPO
Procedure: Keratinocytes derived from neonatal foreskins (Invitrogen, CA, USA) were cultured in 6-well plates in keratinocyte culture medium with supplement (EpiLife, Invitrogen). After culturing for 24 hours at 37° C., the 70% confluent cells were washed with PBS buffer (Invitrogen, CA) and incubated with basic keratinocytes culture medium (EpiLife, Invitrogen) containing the active agent to be tested, for 24 hours, at increasing concentrations. The cytotoxicity of the active agent was evaluated in human cultured keratinocytes before testing the activity.
Keratinocytes were treated with various concentrations of active agent in triplicates for 24 hours. The mRNA was isolated using the Qiagen RNeasy kit (Qiagen, CA) and quantified using the QuantIt kit (Invitrogen, CA).
The PCR primers were obtained from Applied Biosystems (Applied Biosystems, CA). The housekeeping gene used was RPLPO.
To quantify the expression of messenger RNA of ARNT2 in a treated sample relative to an untreated sample, real-time polymerase chain amplification (RT-PCR) was performed. […]
The relative quantification of the expression of the target gene was performed using the Pfaffl mathematical model (Pfaffl, M W, Nucleic Acids Res. 29(9), p. E45, 2001). […]
The effect of this botanical extract on the expression of the ARNT2 mRNA was evaluated on cultured keratinocytes. […]

Structure (SMILES): CC(=O)Oc1cc(C=Cc2ccc(OC(=O)CCCCC3CCSS3)cc2)cc(OC(C)=O)c1 (stereo not shown) [Active agent tested, resveratrol 3,5-diacetate-4′-lipoate]
- Stimulation of ARNT2 mRNA: 1.81

Source: US20120237941A1, “METHOD FOR SCREENING ACTIVE AGENTS THAT STIMULATE THE EXPRESSION OF ARNT2 TO IMPROVE THE SKIN'S BARRIER FUNCTION” (CHANEL PARFUMS BEAUTE, priority 2009, published 2012)
